Source: patent US4330558A, “Pharmaceutical composition and method for treating peripheral orthostatic hypotension” (Sumitomo Chemical Company, Limited, priority 1980, dated 1982)
Where two headings read alike, the source gives them in different places.

Legend:
[1] = Clinical observation of side effects; format: in vivo, human
[2] = Acute toxicity, LD50 in mice; format: in vivo; conditions: mouse, in vivo
Excerpt: (§1) Toxicity of threo-DOPS is extremely low. LD50 value in mice is more than 10 g/kg (p.o.) and about 10 g/kg (i.p.).

mice = test: Acute toxicity, LD50 in mice; format: in vivo
Excerpt: as §1

orthostatic hypotension = test: Clinical effect of threo-DOPS on blood pressure, summary of the pharmacological tests; format: in vivo, human
[3] = Comparison of effectiveness of L-isomer and DL-isomer in the pharmacological tests; format: in vivo; conditions: L-isomer vs DL-isomer
Excerpt: In general, threo-DOPS exists as optical isomers and there are the L- and D-isomers as well as the racemic DL-isomer. The term "threo-DOPS" used herein means DL-threo-DOPS and L-threo-DOPS.

[4] = test system: aromatic L-amino acid decarboxylase; conditions: in the living body; cited from earlier work
[5] = in a certain case; cited from earlier work
FAP patients = test: Long term oral administration of DL-threo-DOPS in FAP patients (simple blind test, 4 weeks); format: in vivo, human; conditions: 1.2 g/day oral
Procedure: (3) Long term oral administration of DL-threo-DOPS The clinical trial was carried out according to a simple blind test procedure. […] The patients refrained from taking any drug for one week before administration of DL-threo-DOPS. After 4 weeks of administration period of DL-threo-DOPS,the patients were given placebos containing lactose. […] In the graphs A to F of FIG. […] The results are expressed as mean±S.E.

[6] = test system: patients suffering from various kinds of orthostatic hypotension; test: Effect of intravenous DL-threo-DOPS on blood pressure in patients suffering from various kinds of orthostatic hypotension; format: in vivo, human; conditions: i.v. drip infusion
Procedure: Under the same condition as in FAP, DL-threo-DOPS was administered intravenously to patients suffering from familial diabetes mellitus, aortitis syndrome, idiopathic orthostatic hypotension, acute pan-dysautonomia and ectopic pineal tumor, respectively. Changes in pulse rate and blood pressure were determined. In the graphs A to D of FIGS. 4, 5, 6, 7 and 8, the abscissa axes indicate time (min.) and the ordinate axes indicate change in pulse rate, maximum blood pressure (mmHg) and minimum blood pressure (mmHg), and drip infusion rate of DL-threo-DOPS (mg/min.), respectively.

patients with FAP [7] = test: Intravenous drip infusion test of DL-threo-DOPS in normal persons and FAP patients (pulse rate, blood pressure); format: in vivo, human; conditions: 200 mg i.v. drip infusion over 2 hours
Procedure: (1) Intravenous drip infusion test of DL-threo-DOPS The test was carried out by administering 200 mg of DL-threo-DOPS in 400 ml of isotonic sodium chloride solution over 2 hours to four persons (2 normal persons and 2 FAP patients) by intravenous drip infusion (1.7 mg/min.). Changes in pulse rate and blood pressure were determined. In the graphs A to D of FIG. 1, the abscissa axes indicate time (min.) and the ordinate axes indicate changes in pulse rate, maximum blood pressure (mmHg) and minimum blood pressure (mmHg), and drip infusion rate of DL-threo-DOPS (mg/min.), respectively. In the graphs A to C, the symbol o indicates normal subjects (2 persons) and .cndot., FAP patients (2 persons).

patients with FAP [8] = format: in vivo, human; conditions: 600 mg oral
Procedure: (2) Oral administration test of DL-threo-DOPS
The test was carried out by administering orally 600 mg of DL-threo-DOPS to nine persons (4-normal persons and 5 FAP patients). Plasma norepinephrine levels and blood pressure were determined.
In the graphs A to C of FIG. 2, the abscissa axes indicate time (hrs.) and the ordinate axes indicate plasma norepinephrine level (pg/ml), change in maximum blood pressure (mmHg) and minimum blood pressure (mmHg), respectively. The results are expressed as mean±S.E.

[9] = summary of the pharmacological tests

## N[C@H](C(=O)O)[C@H](O)c1ccc(O)c(O)c1 (relative stereo) [threo-DOPS, threo-3,4-dihydroxyphenylserine]
[1]
  side effect observed clinically: no side effect is observed clinically
[2]; ip
  LD50: ~10000 mg/kg
[2]; po
  LD50: > 10000 mg/kg
mice
  toxicity: extremely low
Orthostatic hypotension; FAP as model of dysautonomia syndrome
  effect on orthostatic hypotension: effective on orthostatic hypotension, inducing substantial and sustained elevation of blood pressure
Orthostatic hypotension; [9]
  effect on blood pressure of normal subjects and of patients suffering from central orthostatic hypotension: does not have a significant effect on blood pressure
  effect on peripheral orthostatic hypotension: selective effect on "peripheral" orthostatic hypotension

## N[C@H](C(=O)O)[C@H](O)c1ccc(O)c(O)c1 [L-threo-DOPS, L-threo-3,4-dihydroxyphenylserine]
[3]
  amount for the same effect relative to the DL-isomer: same effect as the DL-isomer in one half the amount
  effectiveness relative to the DL-isomer: about twice as effective as the DL-isomer
[4]
  conversion by aromatic L-amino acid decarboxylase: converted to (-) norepinephrine

## NC(C(=O)O)C(O)c1ccc(O)c(O)c1 (centres unmarked) [DOPS]
[5]
  effect on blood pressure: anti-hypertensive action

## N[C@H](C(=O)O)[C@H](O)c1ccc(O)c(O)c1 (relative stereo) [DL-threo-DOPS, DL-threo-3,4-dihydroxyphenylserine]
FAP patients
  activity of daily living: restored
  dizziness and giddiness caused by orthostatic hypotension: mitigated
  side effect: No side effect was observed
FAP patients; three patients suffering from orthostatic hypotension, 3 and 5 hours after administration
  blood pressure at 11 a.m. and 1 p.m.: a significant rise of blood pressure was observed
[6]; acute pan-dysautonomia, person
  pressor response: Pressor response was observed
[6]; aortitis syndrome, person
  pressor response: Pressor response was observed
[6]; conclusion from cases (1) to (5)
  selectivity for type of orthostatic hypotension: selective effect on the "peripheral" type of orthostatic hypotension
[6]; ectopic pineal tumor, person
  pressor response: Pressor response was not observed
[6]; familial diabetes mellitus, patient A (asymptomatic orthostatic hypotension)
  pressor response: showed pressor response
[6]; idiopathic orthostatic hypotension, person
  pressor response: Pressor response was observed
Patients with FAP [7]; FAP patients (2)
  blood pressure response: a sensitive hypertensive response was observed
  time course of the response: gradual and sustained
Patients with FAP [7]; normal persons (2)
  change in blood pressure: did not change either pulse rate or blood pressure
  change in pulse rate: did not change either pulse rate or blood pressure
Patients with FAP [8]; FAP patients (FIG. 2)
  change in plasma norepinephrine level: almost parallel with that of blood pressure
  time at which plasma norepinephrine level was restored to the normal level after oral administration: 5 h
Patients with FAP [8]; inferred from the results
  absorption after oral administration: absorbed in the intestine
  conversion by aromatic L-amino acid decarboxylase after oral administration: converted to (-) norepinephrine
Patients with FAP [8]; FAP patients (5)
  hypertensive action: gradual and sustained hypertensive action
  time of peak of hypertensive action after oral administration: 5 h
Patients with FAP [8]; normal subjects (4)
  change in blood pressure: no significant change in blood pressure was observed
